Assay results: US4162325A, “N-substituted lactams” (UCB, Societe Anonyme, priority 1976, dated 1979)
“And” between values parts separate entries of the source, which are not always exact repeats. Equal values may be shown once. Read-outs that look alike come from different tables or passages of the source.

Key:
mice = assay: protection against aggressions of the hypoxic type (lethality induced by oxydipentonium chloride) in mice; type: in vivo; details: 1 h, mouse, intraperitoneal, one hour before curarizer, read-out: Proportion of survivors, treated animals; for responders at 100 µM, 100 µmol/kg: 0.1 mM/kg (F 24, G 25.5, H 24, I 30, J 21, K 23, L 23 mg/kg), control 1/10, F 0/10; for responders at 10 µM, 10 µmol/kg: 0.01 mM/kg (B 2.6, G 2.6, H 2.4 mg/kg), control B 1/10, G 1/10, H 2/10; for responders at 320 µM, 320 µmol/kg: 0.32 mM/kg (A 64, I 95, J 68, Piracetam 45 mg/kg), control 1/10, Piracetam 0/10
Protocol: Protection against aggressions of the hypoxic type is shown by a reduction of the lethality induced by a curarizer, the duration of action of which is short, namely oxydipentonium chloride (Brevatonal). At the doses used, this curarizer brings about a respiratory depression which, in turn, brings about a hypoxi-hypercapnic syndrome. A compound capable of protecting the brain during this brief period of hypoxia ensures survival. The compounds are administered to groups of 10 mice one hour before the injection of the curarizer; in a parallel test, a control group of 10 mice are given physiological salt solution before the curarizer. This test has also been developed in our laboratories (see, for the principle of this test, S. LEVIS et al.; Arch. Int. Pharmacodyn. Therap, 93,(1953),1,46-54).
Intraperitoneal administration of compounds of general formula (I), namely, products A, B, F, G, H, I, J, K, L, gives the results shown in Table III: […]

toxicity, LD50 in rat = details: in vivo
Text: The tested compounds have a remarkably low toxicity. Table V gives the toxicities, after intravenous administration, of some of the compounds of the present invention: […]

rats = assay: active avoidance test, memory retention (paw pressure withdrawal) in rats; type: in vivo, rat; details: for minimal effective dose: sc, read-out: Active dose (minimum dose which reduces the stimulus to below 11 graduations)
Text: (A) The action on mnemic processes is first shown by the ability of the compounds to improve a type of memory retention in rats. The principle of the active avoidance test (see M. GREINDL and S. PREAT, Arch. Int. Pharmacodyn. Therap. 223,(1976),(1),168-171) developed in our laboratories and used for this purpose may be described as follows: the reaction of withdrawal of a rat's paw when subjected to an increasing and measured pressure is observed. The pressure at which the withdrawal reaction takes place is called the reaction threshold. This threshold is expressed by the number of graduations of the scale of the apparatus used (Analgesy meter UGO BASILE - Milano) and thus corresponds to the minimum pressure which brings about withdrawal when applied to the animal's paw. It is read directly from the scale of the apparatus used.
Inversely, animals treated with a substance having a positive effect on the mnemic processes (for example, piracetam) show a significant degree of retention: the stimulus at which the rats react by a reflex of avoidance is statistically lower than that of the control animals. A minimum of 20 rats are used per test (10 treated rats and 10 control rats) and the active dose is defined as the minimum dose which reduces the stimulus to below 11 graduations.
Subcutaneous administration of compounds of general formula (I), namely compounds A, G, H, I, J, K, L, N, O, P, Q, R, V, W, give, under these conditions, the effects indicated in Table I below.

With `CC(C)NC(=O)CNC(=O)CN1CCCC1=O` [Compound F, N-isopropyl-2-(2-oxo-1-pyrrolidineacetamido)-acetamide] the responders at 100 µM, 100 µmol/kg (mice) was 40% and the LD50 (toxicity, LD50 in rat; intravenous) was > 3000 µmol/kg and > 723 mg/kg.
For `CN(C)C(=O)CN(C)C(=O)CN1CCCC1=O` [Compound P, N,N-dimethyl-2-(N-methyl-2-oxo-1-pyrrolidineacetamido)-acetamide], the minimal effective dose (rats; Rattus norvegicus, 24 h) was 2.41 mg/kg and 10 µmol/kg and the “activity compared with piracetam in the active avoidance test” value (shortened to “activity compared with piracetam”) (rats; rat, subcutaneous) was “superior to that of piracetam”.
In the case of `CCC(C(=O)NCC(N)=O)N1C(=O)CCC1(C)C` (stereo not drawn) [Compound G, 2-(alpha-ethyl-5,5-dimethyl-2-oxo-1-pyrrolidineacetamido)-acetamide], the minimal effective dose (rats; Rattus norvegicus, 24 h) is reported as 0.51 mg/kg and 2 µmol/kg, the “activity compared with piracetam” value (rats; rat, subcutaneous) is reported as “superior to that of piracetam” and the responders at 10 µM, 10 µmol/kg (mice) is reported as 40%. The responders at 100 µM, 100 µmol/kg (mice) was 60% and the LD50 (toxicity, LD50 in rat; intravenous) was > 2800 µmol/kg and > 714 mg/kg.
For `CC(NC(=O)CN1CCCC1=O)C(N)=O` (stereo not shown) [Compound Q, 2-methyl-2-(2-oxo-1-pyrrolidineacetamido)-acetamide], the minimal effective dose (rats; Rattus norvegicus, 24 h) was 2.13 mg/kg and 10 µmol/kg and the “activity compared with piracetam” value (rats; rat, subcutaneous) was “superior to that of piracetam”.
In the case of `CCCNC(=O)CNC(=O)C(CC)N1C(=O)CCC1(C)C` (stereo not drawn) [Compound I, 2-(alpha-ethyl-5,5-dimethyl-2-oxo-1-pyrrolidineacetamido)-N-propylacetamide], the minimal effective dose (rats; Rattus norvegicus, 24 h) is reported as 5.94 mg/kg and 20 µmol/kg, the “activity compared with piracetam” value (rats; rat, subcutaneous) is reported as “superior to that of piracetam” and the responders at 100 µM, 100 µmol/kg (mice) is reported as 50%. For the same molecule, the responders at 320 µM, 320 µmol/kg (mice) was 80% and the LD50 (toxicity, LD50 in rat; ip, intraperitoneal) was > 2500 µmol/kg and > 743 mg/kg.
In the case of `NC(=O)C(NC(=O)CN1CCCC1=O)c1ccccc1` (stereo not shown) [Compound R, 2-(2-oxo-1-pyrrolidineacetamido)-2-phenylacetamide], the minimal effective dose (rats; Rattus norvegicus, 24 h) is reported as 2.75 mg/kg and 10 µmol/kg and the “activity compared with piracetam” value (rats; rat, subcutaneous) is reported as “superior to that of piracetam”.
With `CN(CC(N)=O)C(=O)CN1CCCC1=O` [Compound N, 2-(N-methyl-2-oxo-1-pyrrolidineacetamido)-acetamide] the minimal effective dose (rats; Rattus norvegicus, 24 h) was 2.13 mg/kg and 10 µmol/kg and the “activity compared with piracetam” value (rats; rat, subcutaneous) was “superior to that of piracetam”.
In the case of `NC(=O)CNC(=O)C1(N2CCCC2=O)CC1` [Compound L, 2-[1-(2-oxo-pyrrolidino)-cyclopropanecarboxamido]-acetamide], the minimal effective dose (rats; Rattus norvegicus, 24 h) is reported as 0.23 mg/kg and 1 µmol/kg, the “activity compared with piracetam” value (rats; rat, subcutaneous) is reported as “superior to that of piracetam” and the responders at 100 µM, 100 µmol/kg (mice) is reported as 80%.
In the case of `CNC(=O)CN(C)C(=O)CN1CCCC1=O` [Compound O, N-methyl-2-(N-methyl-2-oxo-1-pyrrolidineacetamido)-acetamide], the minimal effective dose (rats; Rattus norvegicus, 24 h) is reported as 2.27 mg/kg and 10 µmol/kg and the “activity compared with piracetam” value (rats; rat, subcutaneous) is reported as “superior to that of piracetam”.
In the case of `NC(=O)CNC(=O)CN1CCCCCC1=O` [Compound V, 2-(hexahydro-2-oxo-1H-azepine-1-acetamido)-acetamide], the “activity compared with piracetam” value (rats; rat, subcutaneous) is reported as “superior to that of piracetam” and the minimal effective dose (rats; rat, subcutaneous, tested 24 hours later) is reported as 2.27 mg/kg and 10 µmol/kg.
In the case of `CC(C(=O)NCC(N)=O)N1CCCC1=O` (stereo not drawn) [Compound J, 2-(alpha-methyl-2-oxo-1-pyrrolidineacetamido)-acetamide], the minimal effective dose (rats; Rattus norvegicus, 24 h) is reported as 0.21 mg/kg and 1 µmol/kg, the “activity compared with piracetam” value (rats; rat, subcutaneous) is reported as “superior to that of piracetam” and the responders at 100 µM, 100 µmol/kg (mice) is reported as 60%. For the same molecule, the responders at 320 µM, 320 µmol/kg (mice) was 100% and the LD50 (toxicity, LD50 in rat; intravenous) was > 2600 µmol/kg and > 554 mg/kg.
In the case of `CCCCC(C(=O)NCC(N)=O)N1CCCC1=O` (stereo not drawn) [Compound W, 2-(alpha-n-butyl-2-oxo-1-pyrrolidineacetamido)-acetamide], the minimal effective dose (rats; Rattus norvegicus, 24 h) is reported as 2.55 mg/kg and 10 µmol/kg and the “activity compared with piracetam” value (rats; rat, subcutaneous) is reported as “superior to that of piracetam”.
For `CCCCNC(=O)CNC(=O)CN1CCCC1=O` [Compound B, N-n-Butyl-2-(2-oxo-1-pyrrolidineacetamido)-acetamide], the responders at 10 µM, 10 µmol/kg (mice) was 60%, the responders at 32 µM, 8.2 mg/kg (mice; ip, 0.032 mM/kg (B 8.2 mg/kg), control 1/10) was 80% and the LD50 (toxicity, LD50 in rat; intravenous) was > 4000 µmol/kg and > 1020 mg/kg.
